Measurements published in patent US8110654B2, “T cell epitope peptides of ovarian cancer anti-idiotypic antibody 6B11 and use thereof” (Peking University People;s Hospital, priority 2006, dated 2012).

Legend:
CD4 T cells = experiment: BrdU cell proliferation assay after magnetic bead sorting of CD4 T cells; type: cell-based, human; settings: reacting cells sorted for CD4 T cells by magnetic beads
Protocol: All the CDR peptides of anti-idiotype antibody 6B11 (6 peptides) were synthesized artificially. The peptides were screened for Th epitope peptides by cell proliferation assay. Anti-idiotype antibody 6B11-CTLs stimulated for one period were used as reacting cells. DCs loaded with anti-idiotype antibodies and peptides respectively were used as stimulating cells. The reacting cells and the stimulating cells (in the ratio of 10:1) were co-incubated at 37° C. under 5% CO2 for 120 hours and then subject to BrdU ELISA cell proliferation assay. Each well contained 100 μl AIM-V culture medium and 1×10^5 anti-idiotype antibody 6B11-CTLs. Within the last 2 hours during stimulation, 10 μl BrdU labeling solution was added into each well and the fluid in the wells was removed. The cells were dried at 60° C. for 1 hour. 200 μl of FixDenat solution was added into each well. The reaction continued for 30 minutes at 37° C. for fixing DNA in the lymphocytes. Finally, 100 μl BrdU monoclonal antibody was added into each well for 90 minutes. The absorption value at 450 nm was read by an automatic microplate reader after substrate chromogenic reaction for detecting the proliferation of the cells. The group of DCs without loading and the group of phytohaemagglutinin (PHA) were used as negative and positive control respectively. […] Other peptides could not stimulate the proliferation of the reacting cells.
For further analyzing the proliferation of the cells, stimulating cells were blocked by anti-human MHC class II antibodies, for evaluating the effect of Th epitope peptides. Firstly, the optimal application concentration of MHC class II antibodies was determined by experiments to be 1:20 dilution (FIG. 3). […] Other peptides could not trigger cell proliferation, no matter whether MHC class II antibodies were applied or not (FIG. 4). […] The reacting cells were subject to magnetic bead sorting of CD4 T cells.

[1] = tested on: anti-idiotype antibody 6B11-CTLs (reacting cells); experiment: BrdU ELISA cell proliferation assay, 6B11-CTLs stimulated by loaded DCs; type: cell-based, human; settings: for proliferation after blocking by MHC class II antibodies: anti-human MHC class II antibodies 1:20 dilution; for proliferation of reacting cells 6B11-CTLs: stimulating DCs loaded with peptide 30 μg/ml or 6B11 40 μg/ml, 120 hours, BrdU, A450
Protocol: Peripheral blood was drawn from HLA-A2 healthy human subjects. After EDTA anti-coagulation treatment, peripheral blood monocytes were isolated using Ficoll lymphocyte isolation 1×10^7 monocytes/well and AIM-V culture medium (containing 5% human AB serum) was added to 1 ml. The cells were incubated at 37° C. under 5% CO2 for 2 hours. Non-adherent cells were drawn and removed as lymphocytes and stored in liquid nitrogen for further use. The adherent cells were monocytes.
The monocytes isolated from said 6-well plates were added with 2 ml AIM-V culture medium (containing 5% human AB serum)/well. Recombinant human granulocyte-macrophage colony-stimulating factor (rh GM-CSF) and recombinant human interleukin-4 (rh IL-4) were added simultaneously both to a final concentration of 1000 U/ml, for induced incubation. On Day 4, 1 ml AIM-V culture medium (containing 5% human AB serum) was supplemented, and rh GM-CSF and rh IL-4 of the same concentration as mentioned above were also supplemented. On Day 6, 1 ml AIM-V culture medium (containing 5% human AB serum) was supplemented again. At the same time, recombinant human tumor necrosis factor-α (rh TNF-α), recombinant human α-interferon (rh IFN-α) and recombinant human interleukin-6 (rh IL-6) were added, all to a final concentration of 1000 U/ml, and prostaglandin E2 (PGE2) was added to a final concentration of 1 μg/ml. Co-incubation lasted 24 hours for inducing mature DCs.
On Day 4 during incubation of DCs, the culture medium, rh GM-CSF and rh IL-4 were supplemented. At the same time, anti-idiotype antibody 6B11 was added to a final concentration of 40 μg/ml for loading. The loaded cells were stored as stimulating cells for further use.
Mature DCs induced were harvested, washed and adjusted to a concentration of 1×10^6 cells/ml. Six CDR peptides (SEQ ID NOs: 1-6, see Table 1, artificially synthesized) in a final concentration of 30 μg/ml respectively, or each peptide of 30 μg/ml together with keyhole limpet hemocyanin (KLH) of 5 μg/ml were added for loading. The loaded cells were stored as stimulating cells for further use.
The freeze-stored autologous lymphocytes were stimulated by DCs loaded with anti-idiotype antibody 6B11 (anti-Id DCs), to obtain CTLs specific to anti-idiotype antibody 6B11 (6B11-CTLs). One period consists of 7 days. On Day 3 of every period, 10 U/ml recombinant human interleukin-2 (rh IL-2) was supplemented. Finally, anti-idiotype antibody 6B11-CTLs were obtained after a one- or three-period stimulation.
All the CDR peptides of anti-idiotype antibody 6B11 (6 peptides) were synthesized artificially. The peptides were screened for Th epitope peptides by cell proliferation assay. Anti-idiotype antibody 6B11-CTLs stimulated for one period were used as reacting cells. DCs loaded with anti-idiotype antibodies and peptides respectively were used as stimulating cells. The reacting cells and the stimulating cells (in the ratio of 10:1) were co-incubated at 37° C. under 5% CO2 for 120 hours and then subject to BrdU ELISA cell proliferation assay. Each well contained 100 μl AIM-V culture medium and 1×10^5 anti-idiotype antibody 6B11-CTLs. Within the last 2 hours during stimulation, 10 μl BrdU labeling solution was added into each well and the fluid in the wells was removed. The cells were dried at 60° C. for 1 hour. 200 μl of FixDenat solution was added into each well. The reaction continued for 30 minutes at 37° C. for fixing DNA in the lymphocytes. Finally, 100 μl BrdU monoclonal antibody was added into each well for 90 minutes. The absorption value at 450 nm was read by an automatic microplate reader after substrate chromogenic reaction for detecting the proliferation of the cells. The group of DCs without loading and the group of phytohaemagglutinin (PHA) were used as negative and positive control respectively. […] Other peptides could not stimulate the proliferation of the reacting cells. […]

[2] = tested on: CD4 T cells derived from 6B11-CTLs; experiment: Intracellular cytokines of CD4 T cells by flow cytometry; type: cell-based, human; settings: 6B11-CTLs co-incubated with peptide-loaded DCs
Protocol: The anti-idiotype antibody 6B11-CTLs were co-incubated respectively with DCs loading VH CDR3 peptides and DCs without loading. The production of intracellular cytokines in CD4 T cells derived from the anti-idiotype antibody 6B11-CTLs was detected by flow cytometry.

HLA-A2 = HLA-A2 (Homo sapiens, UniProt P04439, D140Y/D185E/D98H/E176V/E277Q/G131W/G231S/I119V/I121R/I166T/I218V/L300P/L318F/N151K/N90K/P208A/P217A/Q86G/Q94H/R138H/R169H/T345S); experiment: T2 cell binding assay (HLA class I expression on T2 cells, confocal microscopy); type: cell-based; as to T2 binding: key: +++: high binding capacity; ++: moderate binding capacity; +: low binding capacity
Protocol: The peptides obtained by […] method and the VH CDR1 and VL CDR2 region peptides were subject to T2 cell binding assay. T2 cells were co-incubated with each peptides in different concentrations (0.3 μg/ml, 3 μg/ml and 30 μg/ml) for 24 hours and then co-incubated with anti-human MHC class I antibodies. The expression profile of HLA class I molecules on the surface of T2 cells was analyzed by confocal microscopy. […] They were synthesized together with the CDR peptides of the anti-idiotype antibody for screening CTL epitope peptides.

Row | Sequence | proliferation of sorted CD4 T cells (CD4 T cells) | proliferation after blocking by MHC class II antibodies [1] | proliferation of reacting cells 6B11-CTLs [1] | IFN-γ secretion by CD4 T cells [2] | IL-4 level in CD4 T cells [2] | binding capacity in T2 cell binding assay (in words) (HLA-A2; T2 cells co-incubated with peptide 24 hours) | T2 binding (HLA-A2; T2 cells co-incubated with peptide (0.3, 3, 30 μg/ml) 24 hours, HLA class I surface expression)
1 | IALITTKIAWYFDV (VH CDR3 region peptide) [VH CDR3 peptide] | could trigger the proliferation | could be blocked mostly | could stimulate the proliferation | high level | low level | – | –
2 | SQSTHFPYT (VL CDR3 region peptide) | could not trigger the proliferation | could not be blocked | could stimulate the proliferation | – | – | moderate binding capacity | ++
